According to ChEMBL document CHEMBL3751723, “Discovery of highly potent dual EP(2) and EP(3) agonists with subtype selectivity” (Bioorg Med Chem Lett, 2016):

Legend:
[1] = target: Prostaglandin E2 receptor EP2 subtype (Homo sapiens, UniProt P43116); experiment: Agonist activity at human EP2 receptor
[2] = target: T1, Prostaglandin E2 receptor EP3 subtype (Homo sapiens, UniProt P43115); experiment: Agonist activity at human EP3 receptor
T1 sequence (P43115 whole entry): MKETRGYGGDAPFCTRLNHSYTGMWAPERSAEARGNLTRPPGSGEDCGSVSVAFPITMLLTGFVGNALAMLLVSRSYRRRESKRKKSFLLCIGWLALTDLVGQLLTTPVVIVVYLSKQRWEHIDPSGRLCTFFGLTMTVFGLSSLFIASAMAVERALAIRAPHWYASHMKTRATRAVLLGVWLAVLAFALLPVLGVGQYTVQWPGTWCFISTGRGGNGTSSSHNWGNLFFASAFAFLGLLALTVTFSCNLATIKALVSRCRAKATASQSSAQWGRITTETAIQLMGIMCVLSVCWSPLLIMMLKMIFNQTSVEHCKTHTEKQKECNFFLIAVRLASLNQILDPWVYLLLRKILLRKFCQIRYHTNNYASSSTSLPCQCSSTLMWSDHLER

[3] = target: Prostaglandin E2 receptor EP4 subtype (Homo sapiens, UniProt P35408); experiment: Agonist activity at human EP4 receptor
[4] = target: T2, Prostaglandin E2 receptor EP1 subtype (Homo sapiens, UniProt P34995); experiment: Binding affinity to human EP1 receptor
T2 sequence (P34995 whole entry): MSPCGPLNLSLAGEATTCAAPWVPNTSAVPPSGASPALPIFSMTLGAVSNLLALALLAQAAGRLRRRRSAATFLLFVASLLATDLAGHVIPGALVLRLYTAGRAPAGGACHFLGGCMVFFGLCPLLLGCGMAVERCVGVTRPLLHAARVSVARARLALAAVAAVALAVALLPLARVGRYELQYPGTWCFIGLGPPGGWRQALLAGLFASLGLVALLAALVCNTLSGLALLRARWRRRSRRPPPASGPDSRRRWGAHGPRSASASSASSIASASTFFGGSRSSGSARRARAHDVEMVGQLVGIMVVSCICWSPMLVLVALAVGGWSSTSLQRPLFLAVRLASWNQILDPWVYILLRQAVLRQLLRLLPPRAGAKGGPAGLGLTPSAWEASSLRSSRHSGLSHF

[5] = Clearance in rat at 0.01 mg/kg, iv; format: ADME, organism-based; details: in vivo
[6] = Half life in rat at 0.01 mg/kg, iv; format: ADME, organism-based; details: in vivo
[7] = AUC in rat at 1 mg/kg, po; format: ADME, organism-based; details: in vivo
[8] = Oral bioavailability in rat at 1 mg/kg; format: ADME, organism-based; details: in vivo

Prostaglandin E2 receptor EP4 subtype, sequence (P35408 whole entry): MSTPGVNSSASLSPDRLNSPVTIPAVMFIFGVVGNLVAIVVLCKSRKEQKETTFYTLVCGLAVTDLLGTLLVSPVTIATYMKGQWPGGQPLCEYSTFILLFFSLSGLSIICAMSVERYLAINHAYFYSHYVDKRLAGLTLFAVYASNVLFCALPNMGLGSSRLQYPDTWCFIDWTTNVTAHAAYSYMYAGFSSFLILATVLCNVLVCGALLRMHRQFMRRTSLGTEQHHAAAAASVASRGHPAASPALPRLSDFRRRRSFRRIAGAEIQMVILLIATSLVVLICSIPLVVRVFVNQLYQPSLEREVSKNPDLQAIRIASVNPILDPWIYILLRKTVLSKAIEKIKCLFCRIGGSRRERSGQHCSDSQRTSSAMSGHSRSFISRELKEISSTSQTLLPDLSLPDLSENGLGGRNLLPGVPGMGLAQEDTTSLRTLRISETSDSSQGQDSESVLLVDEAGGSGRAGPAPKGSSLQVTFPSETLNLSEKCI
Prostaglandin E2 receptor EP2 subtype, sequence (P43116 whole entry): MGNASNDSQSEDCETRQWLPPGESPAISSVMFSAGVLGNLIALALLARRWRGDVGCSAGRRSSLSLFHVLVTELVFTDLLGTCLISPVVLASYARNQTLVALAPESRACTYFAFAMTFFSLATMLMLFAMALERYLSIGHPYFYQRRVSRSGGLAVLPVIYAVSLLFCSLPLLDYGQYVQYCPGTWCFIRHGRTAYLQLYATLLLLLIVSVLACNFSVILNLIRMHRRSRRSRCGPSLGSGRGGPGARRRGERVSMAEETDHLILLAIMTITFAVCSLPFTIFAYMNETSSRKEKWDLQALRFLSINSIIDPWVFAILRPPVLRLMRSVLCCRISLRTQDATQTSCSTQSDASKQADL

| Structure (SMILES) | EC50 [1] | EC50 [2] | EC50 [3] | Ki [4] | clearance [5] | half-life [6] | AUC [7] | bioavailability [8] |
| --- | --- | --- | --- | --- | --- | --- | --- | --- |
| O=C(O)c1csc(SCCN2C(=O)OC[C@@H]2/C=C/[C@@H](O)C2(CCCCF)CCC2)n1 | 2.9 nM | 10 nM | 195 nM | 1080 nM | 9.5 mL/min/kg | 4.4 h | 41 ng·h/mL | 2.5% |
| CCCCC(C)(C)[C@H](O)/C=C/[C@H]1CCC(=O)N1CCSc1nc(C(=O)O)cs1 | 0.91 nM | 8.4 nM | 4.2 nM |  |  |  |  |  |
| CC(C)(CCCCF)[C@H](O)/C=C/[C@H]1COC(=O)N1CCSc1nc(C(=O)O)cs1 | 5.7 nM | 4.7 nM | 1220 nM | 431 nM |  |  |  |  |
| CC(C)(C)CCC1([C@H](O)/C=C/[C@H]2COC(=O)N2CCSc2nc(C(=O)O)cs2)CCC1 | 3700 nM | 6.7 nM | 4710 nM | 149 nM |  |  |  |  |
| CCCCC1([C@H](O)/C=C/[C@H]2COC(=O)N2CCSc2nc(C(=O)O)cs2)CCC1 | 2.9 nM | 3.9 nM | 73 nM | 220 nM |  |  |  |  |
| CC#CCC1([C@H](O)/C=C/[C@H]2COC(=O)N2CCSc2nc(C(=O)O)cs2)CCC1 | 21 nM | 18 nM | 240 nM | 89 nM |  |  |  |  |
| O=C(O)c1csc(SCCN2C(=O)OC[C@@H]2/C=C/[C@@H](O)C2(CCc3ccccc3)CCC2)n1 | 160 nM | 27 nM | 465 nM | 802 nM |  |  |  |  |
| COCCCC1([C@H](O)/C=C/[C@H]2COC(=O)N2CCSc2nc(C(=O)O)cs2)CCC1 | 18 nM | 25 nM | 705 nM | > 10000 nM |  |  |  |  |
| CCCCC(C)(C)[C@H](O)/C=C/[C@H]1COC(=O)N1CCSc1nc(C(=O)O)cs1 | 7.4 nM | 50 nM | 320 nM | 120 nM |  |  |  |  |
| CCOCCC1([C@H](O)/C=C/[C@H]2COC(=O)N2CCSc2nc(C(=O)O)cs2)CCC1 | 29 nM | 2610 nM | 745 nM | 8420 nM |  |  |  |  |
| O=C(O)c1csc(SCCN2C(=O)OC[C@@H]2/C=C/[C@@H](O)C2(CCC3CCCCC3)CCC2)n1 | 60 nM | 7.4 nM | 8390 nM | 1330 nM |  |  |  |  |
| CCCC[C@H](C)C[C@H](O)/C=C/[C@H]1CCC(=O)N1CCSc1nc(C(=O)O)cs1 | 0.39 nM | 310 nM | 3 nM |  |  |  |  |  |
